We go through eleven compounds from ChEMBL document CHEMBL1201862, “PubChem BioAssay data set” (2004).

Common to all, as to assay: NCI anticancer screen, dose series, 48 h
Assay [1] concerns LOX IMVI.
The test system of assay [2] is NCI-H23.
Assay [3] has as its system NCI-H522.
In assay [4] the test system is SW-620.
The test system of assay [5] is HOP-62.
Assay [6] deals with MOLT-4.
Assay [7] relates to HT-29.
Assay [8] deals with A498.
Assay [9] concerns CAKI-1.
The subject of assay [10] is RXF 393.
Assay [11] relates to SF-539.
Assay [12] has as its system HCC 2998.
Assay [13] deals with TK-10.
Assay [14] concerns SF-268.
Assay [15] concerns SR.

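Method: 48-hour compound exposure of cells in 96-well plates, five concentrations, linear interpolation of endpoints. Here, GI50 denotes the concentration required for 50% inhibition of growth.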 The source made the active and inactive calls. Cut-off read from the data, not from the text of the source: active = GI50 up to about 1.1 µM and inactive = higher.

As to `Cc1ccc(CC(C)N)cc1` (stereo not given), the GI50 in assay [1], in assay [2], in assay [3], in [4], in assay [5] and in assay [6] was > 100 µM (inactive) throughout. Further, the GI50 in assay [7], in [8], in [9], in [10], in assay [11] and in assay [12] was > 100 µM (inactive) in each case. Further, the GI50 in [13] and in assay [14] was > 100 µM (inactive) throughout.
On to `Cc1cc(O)nc(NNC(C#N)c2ccco2)n1` (stereo not given), for which the GI50 in [1], in [2], in assay [15], in [3], in assay [4] and in assay [5] was > 100 µM (inactive) throughout. The GI50 in assay [6], in [7], in assay [9], in assay [10], in assay [11] and in assay [13] was > 100 µM (inactive) in each case. In addition, the GI50 in assay [14] was > 100 µM (inactive).
With `Cc1cc(O)nc(NNC(C#N)c2cccc([N+](=O)[O-])c2)n1` (stereo not given), the GI50 in assay [1] is > 100 µM (inactive); in assay [2], > 100 µM (inactive); in [15], 74 µM (inactive); in assay [3] it was > 100 µM (inactive); in [4], > 100 µM (inactive); in [5] it was > 100 µM (inactive). The GI50 in assay [6], in assay [7], in assay [9], in assay [10], in assay [11] and in [13] was > 100 µM (inactive) in each case. Besides, the GI50 in assay [14] is > 100 µM (inactive).
As to `CC1=Nc2ccccc2SC(c2c(Cl)cccc2Cl)C1` (stereo not given), the GI50 is 0.277 µM (active) in assay [1]; 1.32 µM (inactive) in [2]; 1.22 µM (inactive) in assay [3]; 0.43 µM (active) in assay [4]; 2.15 µM (inactive) in [5]; 0.49 µM (active) in [6]. The GI50 in assay [7] was 0.397 µM (active); in assay [8] it was 2.12 µM (inactive); in assay [9], 2.1 µM (inactive); in [10], 1.34 µM (inactive); in assay [11] it was 0.993 µM (active); in assay [12], 1.6 µM (inactive). Further, the figures for the GI50 in assay [13] and in assay [14] were 2.22 µM (inactive) and 1.01 µM (active), respectively.
On to `COc1ccc(/C(=N\NC(=O)C(N)=O)C(c2ccc(OC)cc2)C2(O)C(=O)Nc3c(Cl)cccc32)cc1` (stereo not given), for which the GI50 in [1] is 58.6 µM (inactive); in assay [2], > 100 µM (inactive); in assay [4] it was > 100 µM (inactive); in [5], > 100 µM (inactive); in assay [6], 82.4 µM (inactive); in [7], > 100 µM (inactive). For the same compound, the GI50 in assay [10], in [12], in assay [13] and in assay [14] was > 100 µM (inactive) each time.
`CC1(C)CC(/C=C2/OC(=O)c3ccccc32)=C(C#N)C(=O)O1`: the GI50 in [1], in assay [2], in assay [15], in assay [3], in [4] and in assay [5] was > 100 µM (inactive) in each case. Also, the GI50 in assay [6] is > 100 µM (inactive); in assay [7], > 100 µM (inactive); in [9] it was > 100 µM (inactive); in [11] it was > 100 µM (inactive); in assay [12], 0.294 µM (active); in assay [14], > 100 µM (inactive).
On to `COc1cc2c(c(O)c1C)C(=O)CC(c1ccccc1)O2` (stereo not given), for which the GI50 in assay [1] was > 10 µM (inactive); in assay [2], 22.4 µM (inactive); in assay [3], 50.2 µM (inactive); in assay [4], > 10 µM (inactive); in [5], > 100 µM (inactive); in assay [6], 32.8 µM (inactive). The GI50 was > 10 µM (inactive) in [7]; 64.1 µM (inactive) in assay [8]; 94.8 µM (inactive) in assay [9]; > 100 µM (inactive) in assay [11]; 79.8 µM (inactive) in [12]; 32.2 µM (inactive) in assay [13]. Besides, the GI50 in assay [14] was > 100 µM (inactive).
Regarding `COc1cc([C@@H]2c3cc4c(cc3[C@@H](NC(=O)c3cccc(C#N)c3)C3COC(=O)[C@@H]32)OCO4)cc(OC)c1O` (stereo not given in full), the GI50 is 0.398 µM (active) in assay [1]; 0.214 µM (active) in assay [2]; 0.908 µM (active) in assay [3]; 0.583 µM (active) in [4]; 0.172 µM (active) in assay [5]; 15.1 µM (inactive) in [6]. Moreover, the GI50 is 1.85 µM (inactive) in assay [7]; 1.26 µM (inactive) in assay [8]; 0.678 µM (active) in [9]; 3.18 µM (inactive) in assay [10]; 0.141 µM (active) in assay [11]; 1.84 µM (inactive) in [12]. For the same compound, the results for the GI50 in [13] and in assay [14] were 3.29 µM (inactive) and 1.32 µM (inactive), respectively.
Take `CC(C)N(C(=O)C12CC3CC(CC(C3)C1)C2)C(C)C`: the GI50 in assay [1], in assay [2], in assay [3], in assay [4], in assay [5] and in assay [6] was > 50 µM (inactive) throughout. The GI50 in assay [7], in assay [8], in assay [9], in [10], in assay [11] and in [12] was > 50 µM (inactive) throughout. Further, the GI50 in assay [13] and in assay [14] was > 50 µM (inactive) throughout.
In the case of `CC(=O)Oc1cc(OC(C)=O)c(OC(C)=O)c2c1CC1C(=O)C3(CCc4ccccc43)C(=O)C1C2` (stereo not given), the GI50 in [1] was 6.67 µM (inactive); in assay [2], 18.4 µM (inactive); in assay [4], 17.9 µM (inactive); in assay [5], 21.1 µM (inactive); in assay [7] it was 20.7 µM (inactive); in assay [9], 20.2 µM (inactive). The GI50 is 15 µM (inactive) in [10], 6.7 µM (inactive) in [12], 17.4 µM (inactive) in assay [13] and > 10 µM (inactive) in assay [14].
Take `CN(C(=O)c1ccc([N+](=O)[O-])cc1)c1ccccc1`: the GI50 in assay [1], in assay [2], in assay [3], in assay [4], in [5] and in assay [6] was > 100 µM (inactive) each time. Besides, the GI50 in [7] was > 100 µM (inactive); in [8] it was > 100 µM (inactive); in [9] it was > 100 µM (inactive); in [10], 21.6 µM (inactive); in [11], > 100 µM (inactive); in assay [12] it was > 100 µM (inactive). The GI50 in assay [14] is > 100 µM (inactive).
